# Data reported in patent US6025491A, “Water soluble onium salt of taxo-diterpenoid” (The Scripps Research Institute, priority 1998, dated 2000).
# Counter-ions that a name gives are not always drawn. Like-named read-outs stand apart in the source and are kept apart here.
# Columns and labels:
# [1] = taxol release / breakdown of taxol-2'-MPT in plasma; assay type: in vitro ADME, human
# Method: (§1) Due to a difference in retention time using our standard HPLC conditions (see FIG. 1) and differing ultraviolet absorption maxima (1280 /1254 =1.6 for 2 and 0.3 for 1), the stability of 2 was easily assayed by HPLC (FIG. 1). […] In phosphate buffered saline (PBS) or ammonium acetate--phosphate buffer systems of pH 6.0 to 7.3, 2 is stable at 25° C. for over 21 days. Taxol-2'-MPT (2) is, however, unstable in 5% HCl (pH 1.1) and brine.
# (§2) Under these conditions 20% of total is recovered. More particularly, Taxol-2'-MPT (2) was dissolved in the aqueous system with the aid of sonication for five minutes. Aliquots were then removed at the times shown and partitioned into methylene chloride to quench the reaction. Samples were then analyzed using a Waters Maxima HPLC instrument equipped with an autoinjector (3.9×300 mm C18 column equipped with a precolumn. The flow rate was 1.5 mL/minute. The eluent gradient A-B extended over 30 minutes. "A" was 80% 80 mM ammonium acetate, pH 6.0. "B" was 100% methanol. An ultraviolet diode array detector was employed. The ratio of compound 2 (Rf 16.2 min.) to taxol (compound 1, Rf 16.8 min.) remaining was determined from the relative areas of the peaks after normalization with previously determined calibration curves.
# human leukemia [2] = test system: human leukemia
# Method: (§4) More particularly, cells were plated on 96 well plates with the following controls: no cells and toxic control (1×10^-3 M SDS). The drug was added to the first set of wells and diluted via standard dilution method from the stock. Plates were incubated at 37° C., 5% CO2 in sterile air in an humidified incubator for 72 hours. An aliquot of 50 μL of a solution of 2,3-bis(methoxy-4-nitro-5-sulfophenyl)-5-[(phenylamino) carbonyl]-1H-tetrazolium hydroxide (XTT), 1 mg mL^-1, in phosphate buffered saline (PBS, 100 mM) was added to the wells. In the presence of viable cells, this colorless clear media is enzymatically altered to give a pink coloration. The plates were read at 450 nm using a plate reader. Percentage cytotoxicity was calculated using the formula: % C=1-(OD toxin)(OD growth control)^-1 (100).
# [3] = self-assembly: optical density at 340 nm and transmission electron microscopy; assay type: physicochemical
# Excerpt: Transmission electron microscopy (TEM) confirmed the presence of supramolecular structures in these solutions. […] It is likely that the long term stability of these solutions is due, at least in part, to stabilization provided by this structured environment.
# tubulin = assay: microtubule (tubulin) polymerization-depolymerization measurements; assay type: biochemical; settings: for suppression of calcium chloride promoted depolymerization: 10^-6 M drug, 0.25 mM CaCl2, OD 340 nm; for suppression of calcium chloride promoted depolymerization / microtubule polymerization-depolymerization: tubulin 1.0 mg/mL; for microtubule polymerization-depolymerization: 10^-6 drug, 1.0 mM GTP, 0.25 mM CaCl2, 37° C.
# Method: Tubulin polymerization-depolymerization measurements are illustrate in FIG. 3. Negative controls are shown with triangles; positive taxol controls are shown with diamonds; and taxol-2'-MPT, i.e., compound 2 is shown with dots.
# More particularly, measurement were performed in 96 well plates at 37° C. following the protocol of R. Merlock and W. Wrasidlo (Analytical Biochemistry 1993, in press). Calcium chloride addition is indicated by the arrow. In each case, 1.0 mM GTP was used to promote the initial polymerization of tubulin. Negative control employed tubulin (1.0 mg/mL) alone, CaCl2 (0.25 mM) added after 20 minutes. Positive taxol control employed tubulin (1.0 mg/mL) with taxol (10^-6 M) and CaCl2 (0.25 mM) added after 20 minutes. The experimental taxol-2'-MPTemployed tubulin (1.0 mg/mL) with taxol-2'-MPT (10^-6) and CaCl2 (0.25 mM) added after 20 minutes. Turbidity was measured as optical density at 340 nm using a microplate reader (Molecular Devices Thermomax).
# [4] = stability measurements by HPLC (solid state and aqueous media); assay type: physicochemical; settings: for stability duration: pH 6.0 to 7.3, 25° C.
# Method: as §1, §2
# metastatic melanoma [5] = test system: metastatic melanoma
# Method: as §4
# immunoglobulins = assay: displacement of MPT group by immunoglobulins; assay type: in vitro ADME
# Excerpt: (§3) However, the release of taxol from taxol-2'-MPT can also be catalyzed by serum protein and by proteins having nucleophilic groups. […] Dialysis of the protein:taxol intermediate indicates a dissociation period of hours or days. Displacement of the MPT group by serum proteins seems to be specific for such serum proteins. […] The precise nature of the bonding between the protein and taxol has not been characterized. Scheme 2 illustrates alternative pathways for MPT release.
# cervical carcinoma [6] = test system: cervical carcinoma
# Method: as §4
# [7] = test system: A549 non-small cell lung adenocarcinoma xenograft; assay: efficacy in lung tumor xenograft nude mouse model; assay type: in vivo, nude mice (human lung carcinoma xenografts); settings: I.P. day 1, 3 and 7; taxol 18.0 mg/kg in Cremaphor/D5W; 2 at 23.9 mg/kg
# Method: The tumor model was generated from an ATCC A549 non-small cell lung adenocarcinoma cell line that was maintained under the standard cell proliferation conditions (37° C., 5% carbon dioxide in sterile air). Hemocytometer counted cells suspended in Hanks medium (Gibco, Grand Island N.Y.) were implanted S.C.
# serum albumen = assay: displacement of MPT group by serum albumen; assay type: in vitro ADME
# Excerpt: as §3
# [8] = Method: The solubility and partition coefficient data for 2 and taxol were determined using an HPLC method.
# Solubility was found by forming a solution in water with the aid of sonication for five minutes, centrifugation of the samples, and injection of the supernatant. The values reported were normalized using calibration curves constructed for both compounds by preparing known concentrations in the range 1×10^-6 to 1×10^-3 M in methylene chloride and subjecting to HPLC analysis under the same conditions. […] Partition coefficients were determined by dissolving the compound in the organic phase, shaking the resulting solution with water for ten minutes, and analyzing each phase by HPLC as above.
# [9] = kinetics of taxol release from taxol-2'-MPT in aqueous solutions; assay type: physicochemical; settings: 25° C.; for taxol release: over 11 minutes
# Method: as §2
# non-serum proteins = assay: displacement of MPT group by non-serum proteins; assay type: in vitro ADME; settings: tested non-serum proteins
# Excerpt: as §3
# serum protein = assay: displacement of MPT group by serum protein, dialysis of protein:taxol intermediate; assay type: in vitro ADME; settings: contacted with serum protein
# human leukemia [10] = assay: cytotoxicity (XTT), human leukemia
# Method: as §4
# metastatic melanoma [11] = assay: cytotoxicity (XTT), metastatic melanoma
# Method: as §4
# [12] = background statement; cited from earlier work
# [13] = formulated in Cremaphor (polyoxyethylated castor oil) and ethanol; cited from earlier work
# cervical carcinoma [14] = assay: cytotoxicity (XTT), cervical carcinoma
# Method: as §4
compound,measurement,setting,value
"CC(=O)O[C@H]1C(=O)[C@@]2(C)[C@H]([C@H](OC(=O)c3ccccc3)[C@]3(O)C[C@H](OC(=O)[C@H](Oc4cccc[n+]4C)[C@@H](NC(=O)c4ccccc4)c4ccccc4)C(C)=C1C3(C)C)[C@]1(OC(C)=O)CO[C@@H]1C[C@@H]2O [taxol-2'-MPT, Taxol-2'-MPT (methylpyridinium tosylate)]",breakdown in human plasma,[1]; incubated at 37° C. with human plasma,breaks down rapidly
same,time to complete conversion of 2 into taxol,"[1]; plasma, methylene chloride extraction, 25° C.",≤ 10 min
same,taxol discharge in sera,[1]; sera,rapidly discharges taxol in sera
same,cytotoxicity level,human leukemia [2],Extremely high
same,critical concentration for exponential increase in optical density (critical aggregation concentration),"[3]; OD 340 nm, buffered solutions",400 µM
same,diameter of fibrillar aggregates,"[3]; TEM, fibrillar structure",ca. 80 Å
same,helical twist of fibrillar aggregates,"[3]; TEM, fibrillar structure",about 7
same,length of fibrillar aggregates,"[3]; TEM, fibrillar structure",up to 800 Å
same,diameter of spherical structures,"[3]; TEM, freshly sonicated solutions",about 50 Å
same,concentration above which haze and diffuse light scattering appear,[3]; buffered solutions,greater than 1×10^-3 M
same,appearance of water solutions,"[3]; water, all concentrations examined",optically clear
same,suppression of calcium chloride promoted depolymerization,tubulin,not by taxol-2'-MPT
same,microtubule polymerization-depolymerization,tubulin; listed as 2,does not affect the tubulin-microtubule equilibria
same,microtubule polymerization-depolymerization,tubulin; listed as taxol-2'-MPT (2),very similar to GTP-saline controls and drastically different from taxol
same,binding to tubulin in the manner of taxol,tubulin; buffered aqueous environment,does not appear to bind to tubulin in the manner of taxol
same,stability,[4]; 5% HCl (pH 1.1),unstable
same,stability duration,[4]; ammonium acetate--phosphate buffer systems,over 21 days
same,stability,[4]; aqueous media at physiological pH and ion strength,essentially completely stable
same,stability,[4]; brine,unstable
same,"stability, onset of slow degradation",[4]; in 1.5% saline,> 4 days
same,"stability, onset of slow degradation",[4]; in 5% dextrose,> 4 days
same,"stability, onset of slow degradation",[4]; in water,> 4 days
same,stability duration,[4]; phosphate buffered saline (PBS),over 21 days
same,cytotoxicity level,metastatic melanoma [5],Extremely high
same,effectiveness in displacing the MPT group,immunoglobulins,particularly effective
same,cytotoxicity level,cervical carcinoma [6],Extremely high
same,control of tumor growth compared with taxol,[7],at least comparable to that of taxol
same,effectiveness in displacing the MPT group,serum albumen,particularly effective
same,solubility in water compared with taxol,[8],significantly more soluble in water than the parent taxol
same,taxol release,[9]; 5% dextrose,no taxol release is observed
same,stability in water and aqueous buffer solutions,[9],stable in water and aqueous buffer solutions
same,taxol release,[9]; pH 6.2 phosphate buffered saline,no taxol release is observed
same,taxol release,[9]; sterile water,no taxol release is observed
same,activity in displacing the MPT group,non-serum proteins,seemed to lack this activity
same,reaction with serum protein,serum protein,observed to displace its MPT group and form a protein:taxol intermediate
CC(=O)O[C@H]1C(=O)[C@@]2(C)[C@H]([C@H](OC(=O)c3ccccc3)[C@]3(O)C[C@H](OC(=O)[C@H](O)[C@@H](NC(=O)c4ccccc4)c4ccccc4)C(C)=C1C3(C)C)[C@]1(OC(C)=O)CO[C@@H]1C[C@@H]2O [taxol],cytotoxicity level,human leukemia [10],Extremely high
same,cytotoxicity level,metastatic melanoma [11],Extremely high
same,water solubility,[12],less than 1.5×10^-6 M
same,side effects of formulation,[13],hypersensitivity reactions
same,suppression of calcium chloride promoted depolymerization,tubulin,suppressed by taxol
same,microtubule stabilization by taxol recovered from plasma treated with 2,tubulin; taxol recovered from human plasma treated with 2,exhibited the expected microtubule stabilization
same,cytotoxicity level,cervical carcinoma [14],Extremely high
same,Partition Coefficient [octanol]/[water],[8],> 10000
same,Solubility in Water,[8]; water,< 1.5 µM
